In patent publication US20200360306A1, “USE OF CO-CRYSTALS OF TRAMADOL AND CELECOXIB FOR TREATING PAIN WHILE REDUCING THE ABUSE LIABILITY OF TRAMADOL” (ESTEVE PHARMACEUTICALS, S.A., priority 2019, published 2020):
“And” between values parts separate entries of the source, which are not always exact repeats. Equal entries are not always repeated.

Test: Single dose, randomized, open-label, 4-period crossover pharmacokinetic study; plasma tramadol and O-desmethyltramadol (M1) by HPLC-MS/MS; AQ=Cmax/Tmax
Details: healthy subjects; for AQ for tramadol, comparison between treatments (statistical significance): 4-way cross-over study; for O-desmethyltramadol AQ / O-desmethyltramadol Cmax / O-desmethyltramadol Tmax / Tramadol AQ / Tramadol Cmax: 2 × 100 mg co-crystal E-58425 tablets (Treatment 1), oral
Method: The study was a single center, randomized, single dose, open-label, 4-period, 4-sequence, crossover design in healthy male and female subjects.
The products were administered to 36 subjects. The wash-out between the periods for each subject was of 7 calendar days.
Separate blood samples were obtained for analysis of tramadol/M1 metabolite and for analysis of celecoxib (data not shown).
As soon as possible following blood collection, samples were centrifuged at a temperature of 4° C. nominal and at approximately 1500 g for 10 minutes. The plasma obtained was separated into duplicate polypropylene culture tubes. […] The samples were frozen in an upright position and retained in the clinic's freezers at a temperature of −20° C. nominal until sent on dry ice to the bioanalytical facility for assay.
The experimental human plasma samples were assayed for tramadol and M1 metabolite (O-desmethyltramadol) and also for celecoxib (data not shown) using two different validated bioanalytical methods by HPLC with MS/MS detection.
Sample pre-treatment involved the liquid-liquid extraction of tramadol and O-desmethyltramadol from 0.100 mL of human plasma; tramadol-D6 and O-desmethyltramadol-D6 were used as the internal standards (IS1 and IS2 respectively). The compounds were identified and quantified using Hilic HPLC with MS/MS detection over a theoretical concentration range of 2.00 ng/mL to 800.00 ng/mL for tramadol and 0.500 ng/mL to 200.00 ng/mL for O-desmethyltramadol. The concentrations were calculated using peak area ratios and the linearity of the calibration curve was determined using a weighted (1/x^2) linear (y=mx+b) least squares regression analysis for tramadol and for O-desmethyltramadol.
Pharmacokinetic parameters were estimated from the individual plasma concentration—time profile for each subject. The main absorption and disposition parameters were obtained using a non-compartmental approach with a log-linear terminal phase assumption. Maximum observed plasma concentration (Cmax) and the time of maximum observed plasma concentration (Tmax) were obtained directly from the experimental data. The trapezoidal rule was used to estimate the area under the curve (AUC; data not shown) and the terminal phase was estimated by maximizing the coefficient of determination estimated from the log-linear regression model (T1/2; data not shown). The abuse quotient was obtained using the following expression AQ=Cmax/Tmax.

[1] = Table 3 summary, oral co-crystal E-58425 tablets

With `COc1cccc([C@]2(O)CCCC[C@@H]2CN(C)C)c1.Cc1ccc(-c2cc(C(F)(F)F)nn2-c2ccc(S(N)(=O)=O)cc2)cc1.Cl` (racemic) [co-crystal E-58425, co-crystal of (rac)-tramadol.HCl and celecoxib] as the molecule, how does the “AQ for tramadol, comparison between treatments (statistical significance)” value read?
The value was “better (lower) AQ ratio”.

What about the “AQ for tramadol, comparison between treatments (statistical significance)” value (listed as Co-crystal E-58425) of the same molecule?
The value was “lower than those obtained for Ultram® and for Ultram® and Celebrex® taken concomitantly”.

What about the “O-desmethyltramadol AQ” value (Mean, n=33) of the same molecule?
The value was 13.5 ng/(mL · h).

And the “O-desmethyltramadol Cmax” value (Mean, n=33)?
Its value is 54.5 ng/mL.

What about the “O-desmethyltramadol Tmax” value (Mean, n=33) of the same molecule?
Its value is 4.4 h.

What about the “Tramadol AQ” value (Mean, n=33) of the same molecule?
The value was 70.5 ng/(mL · h).

And the “Tramadol Cmax” value (Mean, n=33)?
Its value is 214.3 ng/mL.

And the “O-desmethyltramadol AQ” value (Median, n=33)?
The value was 13.3 ng/(mL · h).

What about the “O-desmethyltramadol Cmax” value (Median, n=33) of the same molecule?
The value was 55.4 ng/mL.

What about the “Tramadol AQ” value (Median, n=33) of the same molecule?
Its value is 70.7 ng/(mL · h).

What about the “Tramadol Cmax” value (Median, n=33) of the same molecule?
Its value is 207.5 ng/mL.

What about the “AQ M1 Mean” value [1] of the same molecule?
The value was 13.5.

And the “AQ Tramadol Mean” value [1]?
The value was 70.5.

What about the “O-desmethyltramadol Tmax” value (individual subject values, fasting, plasma) of the same molecule?
The value was 3.00 h and 4.00 h.
